Reference: article PMC4057667, “Study on Biopharmaceutics Classification and Oral Bioavailability of a Novel Multikinase Inhibitor NCE for Cancer Therapy” (International Journal of Molecular Sciences, 2014)
Where two headings read alike, the source gives them in different places.

Legend:
[1] = system: platelet-derived growth factor receptor (PDGFR); parameters: method as in PMID 21691074; conditions: at a concentration of 10 μM; cited from earlier work
[2] = Intrinsic dissolution rate (IDR) measurement; format: physicochemical; conditions: phosphate buffer pH 6.8 with 1% SDS, 37 °C, 75 rpm, initial 4 h
Experimental: A modified IDR measurement method was carried out. In brief, 50 mg NCE was compressed under an average compression force of 3.0 MPa for 1 min to make a non-disintegrating compact using a 5 mm die and punch. The surface area of the compact was 0.1963 cm^2. Compacts were placed in a molten beeswax-mold in a way that only one side could come in contact with the dissolution medium. Dissolution study was conducted employing USP II dissolution apparatus using 900 mL phosphate buffer (0.1 mol/mL, pH = 6.8) with 1% SDS (w/v) at 37 ± 1 °C. The paddle rotating speed was 75 rpm. Samples were collected every 30 min for a period of 8 h and analyzed by HPLC. Samples were tested in triplicates.
To evaluate the IDR of NCE, the cumulative amount dissolved per surface unit of the compact was plotted against time. The slope of the linear region (R^2 ≥ 0.95) was taken as the intrinsic dissolution rate. IDR was calculated by the following equation as described previously.
(2) IDR=(dw/dt)(1/S)=DCs/h
where IDR is the intrinsic dissolution rate (mg/min/cm^2); dw is the change in drug dissolved (mg); dt is the change in time (min); S is the surface area of the compact (cm^2); D is diffusion coefficient (cm^2/s); Cs is the solubility (mg/cm^3) and h is the stagnant layer thickness (cm).

[3] = 1-octanol/water partition coefficient, shake-flask method; format: physicochemical; conditions: 37 °C
Experimental: The partition coefficient (logP value) is related closely to drug’s absorption in vivo. Furthermore, it can help to get a better understanding of drug’s physicochemical properties. The 1-octanol/water partition coefficient of NCE was measured by a shake-flask method. Both the 1-octanol and aqueous buffer solution were saturated before performing the experiments. Solutions of about 3.3 mM NCE were prepared in aqueous 0.1 M HCl (pH = 1.0) solution and PBS buffer (pH = 6.8) solutions. Then, 1 mL of 1-octanol was added to 9 mL of the aqueous NCE solution in glass flasks. The mixtures were then stirred in a mechanical shaker for 6 h (37 °C). Samples were left in water baths and kept at the appropriate temperature (37 °C) for at least 72 h. After that, the concentrations in the aqueous phase and 1-octanol phase were determined by HPLC, respectively. The partition coefficients were calculated by the following equation. All the partitioning experiments were performed in at least triplicate.
(1) P1-octanol/water=lg (C1-octanol/Cwater)
where P1-octanol/water is the partition coefficient value; C1-octanol is the drug’s concentration in 1-octanol phase; Cwater is the drug’s concentration in aqueous solution.

[4] = Pharmacokinetic study in beagle dogs; format: in vivo; conditions: 30 mg/kg; for AUC(0-t) / Cmax / MRT / Tmax / half-life / bioavailability: beagle, dog, plasma
Experimental: Six healthy beagle dogs (7.97 ± 0.73 kg) were randomly assigned into two groups. NCE was given to the dogs by intragastrical (i.g.) and intravenous (i.v.) administration at a dosage of 30 mg/kg. Blood was collected from the forelimb vein of the dogs at 0.25, 0.5, 0.75, 1, 2, 3, 4, 6, 8, 10, 12 and 24 h. Plasma samples were obtained by centrifuging blood at 3000 rpm for 10 min and were stored at −20 °C. Before analysis, acetonitrile was added into the plasma and the mixture was vortexed for 5 min to precipitate the protein. Then, the samples were centrifuged for 10 min at a speed of 1.3 × 10^4 rpm. The supernatant was collected and the solvent was removed by pressure blowing concentrator. Then, mobile phase was added to dissolve the residual. The concentrations of NCE in plasma were determined by HPLC.
The pharmacokinetic parameters were calculated using the pharmacokinetics-intelligent analysis module of DAS 2.1.1 software. Total areas under the concentration-time curve (AUC) after i.g. and i.v. administration were determined by extrapolation from time 0−t (AUC0−t), respectively. The oral bioavailability of NCE was estimated using the ratio of AUC values following i.g. and i.v. administration.

[5] = Equilibrium solubility in phosphate buffers; format: physicochemical; conditions: aqueous buffer, thermodynamic from solid, n = 3, mean
Experimental: Different phosphate buffers with a pH range of 1.0–7.4 were prepared as follows. Momobasic potassium phosphate (KH2PO4, 0.2 M) was prepared by dissolving 27.22 g of KH2PO4 in water and diluting with water to 1000 mL. Sodium hydroxide (NaOH, 0.2 M) was prepared by dissolving […] of NaOH in water and diluting with water to 1000 mL. Then, we placed 50 mL of the momobasic potassium phosphate solution in a 200 mL volumetric flask, added the specified volume of the sodium hydroxide solution and added water to volume.
The equilibrium solubilities of NCE were determined in 0.1 mol/mL phosphate buffers with a pH range of 1.0–7.4. An excess amount of NCE was put into the buffer, placed in a 37 °C water bath and shaken for 3 days at a rate of 100 rpm. Samples were centrifuged at a rate of 1.3 × 10^4 rpm for 10 min and then measured by HPLC (Waters e2695 Separations Module, Milford, MA, USA). Each experiment was performed in triplicates.

Question: Which inhibition rate [1] does the source give for `CNC(=O)c1cc(Oc2ccc(NC(=O)c3cccc(C(F)(F)F)c3)cc2)ccn1.Cc1ccc(S(=O)(=O)O)cc1.O` [NCE, 2-methylcarbamoyl-4-{4-[3-(trifluoromethyl)benzamido]phenoxy} pyridinium 4-methylbenzenesulfonate monohydrate] here?
Answer: 55%

Question: What about the “Intrinsic dissolution rate (IDR)” value [2] of the same molecule?
Answer: 1 × 10^−4 mg·min^−1·cm^−2

Question: What about the logP at 6 h ([3]; 1-octanol / 0.1 M HCl solution (pH = 1.0)) of the same molecule?
Answer: 3.1 ± 0.04

Question: And the logP at 6 h ([3]; 1-octanol/PBS pH 6.8, pH 6.8, 1-octanol / PBS 6.8 solution)?
Answer: 4.2 ± 0.07

Question: And the “i.v./i.g. AUC0−t ratio” value ([4]; beagle dogs)?
Answer: 4.19

Question: What about the “i.v./i.g. Cmax ratio” value ([4]; beagle dogs) of the same molecule?
Answer: about 11.10

Question: What about the AUC(0-t) ([4]; iv, Beagle 1) of the same molecule?
Answer: 56200 ng·h/mL

Question: And the Cmax ([4]; iv, Beagle 1)?
Answer: 26000 ng/mL

Question: What about the MRT ([4]; iv, Beagle 1) of the same molecule?
Answer: 1.84 h

Question: And the Tmax ([4]; iv, Beagle 1)?
Answer: 0.23 h

Question: What about the half-life ([4]; iv, Beagle 1) of the same molecule?
Answer: 6.39 h

Question: And the AUC(0-t) ([4]; iv, Beagle 2)?
Answer: 34400 ng·h/mL

Question: What about the Cmax ([4]; iv, Beagle 2) of the same molecule?
Answer: 23700 ng/mL

Question: What about the MRT ([4]; iv, Beagle 2) of the same molecule?
Answer: 1.68 h

Question: What about the Tmax ([4]; iv, Beagle 2) of the same molecule?
Answer: 0.3 h

Question: And the half-life ([4]; iv, Beagle 2)?
Answer: 3.56 h

Question: What about the AUC(0-t) ([4]; iv, Beagle3) of the same molecule?
Answer: 25100 ng·h/mL

Question: What about the Cmax ([4]; iv, Beagle3) of the same molecule?
Answer: 21600 ng/mL

Question: And the MRT ([4]; iv, Beagle3)?
Answer: 1.35 h

Question: What about the Tmax ([4]; iv, Beagle3) of the same molecule?
Answer: 0.22 h

Question: And the half-life ([4]; iv, Beagle3)?
Answer: 9.23 h

Question: What about the AUC(0-t) ([4]; iv, mean ± SD, n = 3) of the same molecule?
Answer: 38600 ± 16000 ng·h/mL

Question: What about the Cmax ([4]; iv, mean ± SD, n = 3) of the same molecule?
Answer: 23800 ± 2230 ng/mL

Question: What about the MRT ([4]; iv, mean ± SD, n = 3) of the same molecule?
Answer: 1.62 ± 0.25 h

Question: And the Tmax ([4]; iv, mean ± SD, n = 3)?
Answer: 0.25 ± 0.04 h

Question: And the half-life ([4]; iv, mean ± SD, n = 3)?
Answer: 6.39 ± 2.83 h

Question: And the AUC(0-t) ([4]; po, i.g., Beagle 4)?
Answer: 6860 ng·h/mL

Question: And the Cmax ([4]; po, i.g., Beagle 4)?
Answer: 3500 ng/mL

Question: And the MRT ([4]; po, i.g., Beagle 4)?
Answer: 10.8 h

Question: And the Tmax ([4]; po, i.g., Beagle 4)?
Answer: 2 h

Question: What about the half-life ([4]; po, i.g., Beagle 4) of the same molecule?
Answer: 12.3 h

Question: And the bioavailability ([4]; po, i.g., Beagle 4, read-out: F, absolute bioavailability)?
Answer: 12.2%

Question: What about the AUC(0-t) ([4]; po, i.g., Beagle 5) of the same molecule?
Answer: 13600 ng·h/mL

Question: And the Cmax ([4]; po, i.g., Beagle 5)?
Answer: 860 ng/mL

Question: What about the MRT ([4]; po, i.g., Beagle 5) of the same molecule?
Answer: 10.6 h

Question: And the Tmax ([4]; po, i.g., Beagle 5)?
Answer: 1.73 h

Question: And the half-life ([4]; po, i.g., Beagle 5)?
Answer: 17.3 h

Question: What about the bioavailability ([4]; po, i.g., Beagle 5, read-out: F, absolute bioavailability) of the same molecule?
Answer: 39.6%

Question: And the AUC(0-t) ([4]; po, i.g., Beagle 6)?
Answer: 7160 ng·h/mL

Question: What about the Cmax ([4]; po, i.g., Beagle 6) of the same molecule?
Answer: 2060 ng/mL

Question: And the MRT ([4]; po, i.g., Beagle 6)?
Answer: 11.2 h

Question: What about the Tmax ([4]; po, i.g., Beagle 6) of the same molecule?
Answer: 2 h

Question: What about the half-life ([4]; po, i.g., Beagle 6) of the same molecule?
Answer: 14.9 h

Question: What about the bioavailability ([4]; po, i.g., Beagle 6, read-out: F, absolute bioavailability) of the same molecule?
Answer: 28.5%

Question: And the AUC(0-t) ([4]; po, i.g., mean ± SD, n = 3)?
Answer: 9210 ± 3820 ng·h/mL

Question: And the Cmax ([4]; po, i.g., mean ± SD, n = 3)?
Answer: 2140 ± 1320 ng/mL

Question: What about the MRT ([4]; po, i.g., mean ± SD, n = 3) of the same molecule?
Answer: 10.8 ± 0.31 h

Question: And the Tmax ([4]; po, i.g., mean ± SD, n = 3)?
Answer: 1.91 ± 0.15 h

Question: What about the half-life ([4]; po, i.g., mean ± SD, n = 3) of the same molecule?
Answer: 14.8 ± 2.53 h

Question: What about the bioavailability ([4]; po, i.g., mean ± SD, n = 3, read-out: F, absolute bioavailability) of the same molecule?
Answer: 26.8 ± 13.8%

Question: And the solubility at 3 days ([5]; phosphate buffer pH 1.0, 37 °C)?
Answer: 81.7 µg/mL

Question: And the solubility at 3 days ([5]; phosphate buffer pH 5.0, 37 °C)?
Answer: 8.5 µg/mL

Question: And the solubility at 3 days ([5]; phosphate buffer pH 6.8, 37 °C)?
Answer: 9.3 µg/mL

Question: And the solubility at 3 days ([5]; phosphate buffer pH 7.4, 37 °C)?
Answer: 10 µg/mL
